*1 amine or outer side, *2 acyl side, *3 side chain or, on linkers, in order; H or OH if unused. Where a SMILES comes first, the peptide text is derived from it. Side-chain parts run from the residue outwards. The star is where a group is joined. C18 diacid = O=C(O)CCCCCCCCCCCCCCCCC(=O)*; γGlu = O=C(O)[C@H](CCC(=O)[*:2])N[*:1]; Isovaleryl = CC(C)CC(=O)*; Ahx = NCCCCCC(=O)O
Assays:
[1] = biological target: T1, Human Neuropeptide Y2 Receptor (Homo sapiens, UniProt P49146); experiment: Radioligand binding competition assay (RLB); details: Table 3, 125I-PYY(1-36) competition; read-out: Ki
T1 construct: purchased CHEMICON HTS066M
T1 sequence (P49146 1-381): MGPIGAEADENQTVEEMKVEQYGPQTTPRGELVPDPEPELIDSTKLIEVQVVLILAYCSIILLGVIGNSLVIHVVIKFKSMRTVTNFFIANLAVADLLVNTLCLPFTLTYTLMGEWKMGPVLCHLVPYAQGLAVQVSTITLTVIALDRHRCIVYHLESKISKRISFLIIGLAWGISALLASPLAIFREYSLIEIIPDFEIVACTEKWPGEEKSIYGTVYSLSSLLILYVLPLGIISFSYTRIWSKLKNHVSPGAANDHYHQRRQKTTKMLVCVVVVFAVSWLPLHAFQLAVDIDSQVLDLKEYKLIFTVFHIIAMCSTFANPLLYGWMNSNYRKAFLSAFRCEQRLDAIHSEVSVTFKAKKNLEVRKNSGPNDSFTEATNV
Method in brief: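 Peptides were serially diluted from 1 mM DMSO stocks and competed for radioligand binding to receptor membranes (0.5 μg/well) over 2 h at room temperature, pH 7.4 HEPES buffer. Bound radioactivity on filters was counted by scintillation, and IC50 was derived by nonlinear regression.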

[2] = Solubility determination; details: for Sol6: pH 6; for Sol7: pH 7
Method in brief: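 Solubility is derived from the ratio of reversed-phase peak areas, filtered sample over a control dissolved at 1 mg/ml in 50% acetonitrile. Peptides are agitated for 2 hours at room temperature in 0.1 M sodium diphosphate at pH 6.4 or 7.0, aiming at 10 mg/ml.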

SMILES	Ki [1] [nM]	Sol6 [2] [mg/mL]	Sol7 [2] [mg/mL]
CC(C)CC(=O)N[C@@H](C)C(=O)N1CCC[C@H]1C(=O)N[C@@H](CCC(=O)O)C(=O)N[C@@H](CCCCNC(=O)CCCCCNC(=O)CC[C@H](NC(=O)CCCCCCCCCCCCCCCCC(=O)O)C(=O)O)C(=O)N1CCC[C@H]1C(=O)N[C@@H](CCC(=O)O)C(=O)N[C@@H](CCC(=O)O)C(=O)N[C@@H](CCC(=O)O)C(=O)N[C@@H](C)C(=O)N[C@@H](CO)C(=O)N1CCC[C@H]1C(=O)N[C@@H](C)C(=O)N[C@@H](CCC(=O)O)C(=O)N[C@@H](CC(C)C)C(=O)N[C@@H](CCC(N)=O)C(=O)N[C@@H](CCCNC(=N)N)C(=O)N[C@@H](Cc1ccc(O)cc1)C(=O)N[C@@H](Cc1ccc(O)cc1)C(=O)N[C@H](C(=O)N[C@@H](CO)C(=O)N[C@@H](CC(C)C)C(=O)N[C@@H](CCCNC(=N)N)C(=O)N[C@@H](Cc1c[nH]cn1)C(=O)N[C@@H](Cc1ccc(O)cc1)C(=O)N[C@@H](Cc1ccc(O)cc1)C(=O)N[C@@H](CC(N)=O)C(=O)N[C@@H](Cc1c[nH]c2ccccc12)C(=O)N[C@@H](CC(C)C)C(=O)N[C@H](C(=O)N[C@@H](CCCNC(=N)N)C(=O)N[C@@H](CCC(N)=O)C(=O)N[C@@H](CCCNC(=N)N)C(=O)N[C@@H](Cc1ccc(O)cc1)C(N)=O)[C@@H](C)O)C(C)C [Compound 139, N{alpha-4}-(3-methylbutanoyl)-N{epsilon-7}-(6-[(4S)-4-carboxy-4-(17-carboxyheptadecanamido)butanamido]hexanoyl)-[4A,7K,9E,11E,15A,18Q,22V,28Y,30W,31L]-hPYY(4-36)] (Isovaleryl-APEK([Ahx-γGlu-C18 diacid])PEEEASPAELQRYYVSLRHYYNWLTRQRY-NH2)	3.6	7.3	8.8
CC(C)CC(=O)N[C@@H](C)C(=O)N1CCC[C@H]1C(=O)N[C@@H](C)C(=O)N[C@@H](CCCCNC(=O)CCCCCNC(=O)CC[C@H](NC(=O)CCCCCCCCCCCCCCCCC(=O)O)C(=O)O)C(=O)N1CCC[C@H]1C(=O)N[C@@H](CCC(=O)O)C(=O)N[C@@H](CCC(=O)O)C(=O)N[C@@H](C)C(=O)N[C@@H](C)C(=O)N[C@H](C(=O)N1CCC[C@H]1C(=O)N[C@@H](CCC(=O)O)C(=O)N[C@@H](CCC(=O)O)C(=O)N[C@@H](CC(C)C)C(=O)N[C@@H](CCC(N)=O)C(=O)N[C@@H](CCCNC(=N)N)C(=O)N[C@@H](Cc1ccc(O)cc1)C(=O)N[C@@H](Cc1ccc(O)cc1)C(=O)N[C@H](C(=O)N[C@@H](CO)C(=O)N[C@@H](CC(C)C)C(=O)N[C@@H](CCCNC(=N)N)C(=O)N[C@@H](Cc1c[nH]cn1)C(=O)N[C@@H](Cc1ccc(O)cc1)C(=O)N[C@@H](Cc1ccc(O)cc1)C(=O)N[C@@H](CC(N)=O)C(=O)N[C@@H](Cc1c[nH]c2ccccc12)C(=O)N[C@@H](CC(C)C)C(=O)N[C@H](C(=O)N[C@@H](CCCNC(=N)N)C(=O)N[C@@H](CCC(N)=O)C(=O)N[C@@H](CCCNC(=N)N)C(=O)N[C@@H](Cc1ccc(O)cc1)C(N)=O)[C@@H](C)O)C(C)C)[C@@H](C)O [Compound 35, N{alpha-4}-(3-methylbutanoyl)-N{epsilon-7}-(6-[(4S)-4-carboxy-4-(17-carboxyheptadecanamido)butanamido]hexanoyl)[4A,6A,7K,9E,11A,13T,18Q,22V,28Y,30W,31L]-hPYY(4-36)]	1.4	0.0	2.4
CC(C)CC(=O)N[C@@H](C)C(=O)N1CCC[C@H]1C(=O)N[C@@H](CCC(=O)O)C(=O)N[C@@H](CCCCNC(=O)CCCCCNC(=O)CC[C@H](NC(=O)CCCCCCCCCCCCCCCCC(=O)O)C(=O)O)C(=O)N1CCC[C@H]1C(=O)N[C@@H](CCC(=O)O)C(=O)N[C@@H](CCC(=O)O)C(=O)N[C@@H](CC(C)C)C(=O)N[C@@H](C)C(=O)N[C@H](C(=O)N1CCC[C@H]1C(=O)N[C@@H](CCC(=O)O)C(=O)N[C@@H](CCC(=O)O)C(=O)N[C@@H](CC(C)C)C(=O)N[C@@H](CCC(N)=O)C(=O)N[C@@H](CCCNC(=N)N)C(=O)N[C@@H](Cc1ccc(O)cc1)C(=O)N[C@@H](Cc1ccc(O)cc1)C(=O)N[C@H](C(=O)N[C@@H](CO)C(=O)N[C@@H](CC(C)C)C(=O)N[C@@H](CCCNC(=N)N)C(=O)N[C@@H](Cc1c[nH]cn1)C(=O)N[C@@H](Cc1ccc(O)cc1)C(=O)N[C@@H](Cc1ccc(O)cc1)C(=O)N[C@@H](CC(N)=O)C(=O)N[C@@H](Cc1c[nH]c2ccccc12)C(=O)N[C@@H](CC(C)C)C(=O)N[C@H](C(=O)N[C@@H](CCCNC(=N)N)C(=O)N[C@@H](CCC(N)=O)C(=O)N[C@@H](CCCNC(=N)N)C(=O)N[C@@H](Cc1ccc(O)cc1)C(N)=O)[C@@H](C)O)C(C)C)[C@@H](C)O [Compound 153, N{alpha-4}-(3-methylbutanoyl)-N{epsilon-7}-(6-[(4S)-4-carboxy-4-(17-carboxyheptadecanamido)butanamido]hexanoyl)-[4A,7K,9E,11L,13T,18Q,22V,28Y,30W,31L]-hPYY(4-36)]	6.8	6.0	9.5
CC(C)CC(=O)N[C@@H](C)C(=O)N1CCC[C@H]1C(=O)N[C@@H](C)C(=O)N[C@@H](CCCCNC(=O)CCCCCNC(=O)CC[C@H](NC(=O)CCCCCCCCCCCCCCCCC(=O)O)C(=O)O)C(=O)N1CCC[C@H]1C(=O)N[C@@H](CCC(=O)O)C(=O)N[C@@H](CCC(=O)O)C(=O)N[C@@H](CC(=O)O)C(=O)N[C@@H](C)C(=O)N[C@@H](CO)C(=O)N[C@@H](CCC(=O)O)C(=O)N[C@@H](CCC(=O)O)C(=O)N[C@@H](CCC(=O)O)C(=O)N[C@@H](CC(C)C)C(=O)N[C@@H](CCC(N)=O)C(=O)N[C@@H](CCCNC(=N)N)C(=O)N[C@@H](Cc1ccc(O)cc1)C(=O)N[C@@H](Cc1ccc(O)cc1)C(=O)N[C@H](C(=O)N[C@@H](CO)C(=O)N[C@@H](CC(C)C)C(=O)N[C@@H](CCCNC(=N)N)C(=O)N[C@@H](Cc1c[nH]cn1)C(=O)N[C@@H](Cc1ccc(O)cc1)C(=O)N[C@@H](Cc1ccc(O)cc1)C(=O)N[C@@H](CC(N)=O)C(=O)N[C@@H](Cc1c[nH]c2ccccc12)C(=O)N[C@@H](CC(C)C)C(=O)N[C@H](C(=O)N[C@@H](CCCNC(=N)N)C(=O)N[C@@H](CCC(N)=O)C(=O)N[C@@H](CCCNC(=N)N)C(=O)N[C@@H](Cc1ccc(O)cc1)C(N)=O)[C@@H](C)O)C(C)C [Compound 185, N{alpha-4}-(3-methylbutanoyl)-N{epsilon-7}-(6-[(4S)-4-carboxy-4-(17-carboxyheptadecanamido)butanamido]hexanoyl)-[4A,6A,7K,9E,14E,18Q,22V,28Y,30W,31L]-hPYY(4-36)]	2.06	8.7	8.9
CC(C)CC(=O)N[C@@H](C)C(=O)N1CCC[C@H]1C(=O)N[C@@H](CCC(=O)O)C(=O)N[C@@H](CCCCNC(=O)CCCCCNC(=O)CC[C@H](NC(=O)CCCCCCCCCCCCCCCCC(=O)O)C(=O)O)C(=O)N1CCC[C@H]1C(=O)N[C@@H](CCC(=O)O)C(=O)N[C@@H](CCC(=O)O)C(=O)N[C@@H](CC(=O)O)C(=O)N[C@@H](C)C(=O)N[C@H](C(=O)N1CCC[C@H]1C(=O)N[C@@H](CCC(=O)O)C(=O)N[C@@H](CCC(=O)O)C(=O)N[C@@H](CCC(=O)O)C(=O)N[C@@H](CCC(N)=O)C(=O)N[C@@H](CCCNC(=N)N)C(=O)N[C@@H](Cc1ccc(O)cc1)C(=O)N[C@@H](Cc1ccc(O)cc1)C(=O)N[C@H](C(=O)N[C@@H](CO)C(=O)N[C@@H](CC(C)C)C(=O)N[C@@H](CCCNC(=N)N)C(=O)N[C@@H](Cc1c[nH]cn1)C(=O)N[C@@H](Cc1ccc(O)cc1)C(=O)N[C@@H](Cc1ccc(O)cc1)C(=O)N[C@@H](CC(N)=O)C(=O)N[C@@H](Cc1c[nH]c2ccccc12)C(=O)N[C@@H](CC(C)C)C(=O)N[C@H](C(=O)N[C@@H](CCCNC(=N)N)C(=O)N[C@@H](CCC(N)=O)C(=O)N[C@@H](CCCNC(=N)N)C(=O)N[C@@H](Cc1ccc(O)cc1)C(N)=O)[C@@H](C)O)C(C)C)[C@@H](C)O [Compound 162, N{alpha-4}-(3-methylbutanoyl)-N{epsilon-7}-(6-[(4S)-4-carboxy-4-(17-carboxyheptadecanamido)butanamido]hexanoyl)-[4A,7K,9E,13T,17E,18Q,22V,28Y,30W,31L]-hPYY(4-36)]	14.9	9.0	9.3

Source: patent publication US12391737B2, “Soluble NPY2 receptor agonists” (Boehringer Ingelheim International GmbH, priority 2020, dated 2025)
